The values that follow come from article PMC8994274, “A proteolysis-targeting chimera molecule selectively degrades ENL and inhibits malignant gene expression and tumor growth” (Journal of Hematology & Oncology, 2022).

The Dmax is the largest share of the target that was removed.

The subject of series [1] is AF9, AFF4, cyclin-T1, DOT1L. The series is described as follows: Other SEC-related proteins in nucleus of MV4;11 cells (Western blot). The series is classed as cell-based. Conditions: 4 days. From the text: We further investigated how compound 1 affects ENL, AF9 and other proteins of SEC in the cytoplasmic and nuclear compartments, the latter of which are more relevant to the functions of these transcription cofactors. […] Upon treatment of MV4;11 cells with these compounds for 4 days, cytoplasmic and nuclear proteins were separated and subjected to SDS-PAGE/Western blot. […] In addition, nuclear levels of H3K79 methylation, the product of DOT1L catalyzed reactions, were not consistently affected by compound 1.
(§1) 3 × 10^6 cells/well were treated with increasing concentrations of a compound for 1 day, and whole proteins were extracted. Equal amounts of proteins were separated on SDS-PAGE and transferred to PVDF membranes. The blots were probed with primary antibodies, followed by anti-rabbit IgG (Thermo Scientific) secondary antibodies. The primary antibodies against ENL (Cell signaling #14893), AF9 (Novusbio #NB100-1565), DOT1L (Cell signaling #77087), AFF4 (Abcam #ab103586), Cyclin T1 (Cell signaling #81464), H3K79me2 (Cell signaling #5427), H3K79me1 (Cell signaling #9398), Histone H3 (Cell signaling #4499), FLAG (Sigma-Aldrich #F1804), β-Actin (Cell signaling #4970) were used in this study.

Series [2] in a line: In vivo toxicity in C57BL/6 mice. As to conditions: 30 mg/kg/day for 13 days. The procedure: In vivo antitumor activity of compound 1 was evaluated in a commonly used mouse model of Molm-13 leukemia. First, in vivo toxicity was assessed in C57BL/6 mice. […] Next, 10^6 Molm-13 cells were injected subcutaneously into NOD-SCID mice, which developed palpable tumors in ~ 1 week and grew rapidly.

Series [3] concerns the target T1, ENL (Homo sapiens, UniProt Q03111).
T1 sequence (Q03111 1-559): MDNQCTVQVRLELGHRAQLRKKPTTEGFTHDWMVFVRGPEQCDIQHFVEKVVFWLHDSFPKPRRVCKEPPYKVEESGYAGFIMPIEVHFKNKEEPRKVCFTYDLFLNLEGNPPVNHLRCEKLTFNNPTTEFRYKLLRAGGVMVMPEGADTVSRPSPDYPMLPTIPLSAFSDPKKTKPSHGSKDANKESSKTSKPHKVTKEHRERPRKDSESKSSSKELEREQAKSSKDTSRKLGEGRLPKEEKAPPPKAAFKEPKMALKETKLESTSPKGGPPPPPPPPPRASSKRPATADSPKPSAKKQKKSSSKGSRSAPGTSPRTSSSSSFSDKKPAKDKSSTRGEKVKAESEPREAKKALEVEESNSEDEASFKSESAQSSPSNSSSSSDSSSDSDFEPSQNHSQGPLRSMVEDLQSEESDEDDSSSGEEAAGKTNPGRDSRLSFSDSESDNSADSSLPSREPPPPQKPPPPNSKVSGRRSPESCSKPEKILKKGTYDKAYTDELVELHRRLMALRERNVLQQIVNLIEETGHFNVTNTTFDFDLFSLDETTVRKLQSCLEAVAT
In words: ENL degradation in Molm-13 cells (Western blot). Details: endogenous in cells. As to conditions: MOLM-13, Molm-13 cells, 24 h. The series is classed as cell-based. The protocol:
In addition, compound 1 efficiently degraded ENL in another MLL1-r leukemia Molm-13 cells (with MLL1-AF9) with DC50 of 47 nM and Dmax of ~ 88% (Fig. 3e). Moreover, significant ENL degradation can be detected in 2 h and depletion occurred within 24 h (Fig. 3f).
as §1

The target of series [4] is T1, ENL. In words: ENL degradation in MV4;11 cells (Western blot). The series is classed as cell-based. On the set-up: endogenous in cells; host or cells: MV4;11. Conditions: 500 nM. (In general: A western blot detects proteins with antibodies after separation by electrophoresis.)
Another series relates to HoxA9, Meis1 and Myc. In words: qPCR expression of HoxA9, Meis1 and Myc in Molm-13 cells. It counts as cell-based. As to conditions: 4 days. The protocol:
Previous studies show ENL is required for expression of MLL1-target genes in MLL1-r leukemia. How compound 1-mediated ENL degradation changes expression of HoxA9, Meis1 and Myc, three characteristic genes in MLL1-r leukemia, was examined. Molm-13 cells were treated with compound 1 for 4 days, after which the RNAs were extracted and analyzed.
10^5 cells/mL were incubated with a compound for 4 days and the RNA was extracted using RNeasy mini kit (#74104, Qiagen). 100–1000 ng of total RNA was reverse transcribed using iScript™ Reverse Transcription Supermix (Bio-Rad) using the manufacturer’s protocol. Quantitative real-time PCR was carried out using Fast SYBR Green Master Mix (Applied Biosystems) according to the manufacturer’s instructions. Measurements were performed in triplicate, using GAPDH as the reference gene. Real-time PCR was performed using Biosystems Step One Plus detection system. The following sequences of primers are used: • MYC (forward: 5′-[…]-3′; reverse: 5′-[…]-3′); • HoxA9 (forward: 5′-[…]-3′; reverse: 5′-[…]-3′); • Meis1 (forward: 5′-[…]-3′; reverse: 5′-[…]-3′); • GAPDH (forward: 5′-[…]-3′; reverse: 5′-[…]-3′).
(In general: Quantitative PCR measures a nucleic acid by following its amplification.)

The next series relates to MV4;11 cells. In words: Antiproliferation assay (XTT), MV4;11. As to conditions: Homo sapiens, MV4-11, 168 h, read-out: EC50 against proliferation of MV4;11 cells.
Series [5] deals with T1, ENL. The series is described as follows: ENL degradation in MV4;11 cells (Western blot). It counts as cell-based. On the set-up: endogenous in cells; host or cells: MV4;11. As to conditions: 24 h. The protocol: We next tested whether these compounds degrade ENL and AF9 in MV4;11 leukemia cells with the MLL1-AF4 oncogene. Upon compound treatment for 24 h, the cells were washed, lysed, and the lysates subjected to SDS-PAGE (sodium dodecyl sulfate–polyacrylamide gel electrophoresis) followed by detection with Western blot.
as §1

The next series has as its system HoxA11 and HoxA13. In words: qPCR expression of HoxA11 and HoxA13 in mENL-transfected HEK293T cells. The series is classed as cell-based. As to conditions: 0.04 μg of the plasmid, 24 h incubation. The protocol: Next, we investigated how mENL degradation affect expression of HoxA11 and HoxA13 in this cell model.
5 × 10^5 HEK293T cells were transfected with mENL containing pcDNA3.1(+)-N-DYK plasmid using jetPRIME (Polyplus Transfection) following the manufacturer's protocol. Upon transfection for 4 h, the media were carefully removed and the cells incubated with fresh media containing the specified concentrations of compound 1 for 24 h before further analysis (using Western blot or qPCR as described above).

Another series deals with Molm-13 cells. In words: Antiproliferation assay (XTT), Molm-13.

“Also recorded” adds a separate entry of the source.

`C[C@H]1CCCN1Cc1nc2cc(NC(=O)c3ccc4c(cnn4CCCCCCCCNc4cccc5c4C(=O)N(C4CCC(=O)NC4=O)C5=O)c3)ccc2[nH]1` (stereo partly drawn) [Compound 1]: the “Levels of AF9, AFF4, cyclin-T1 and DOT1L” value in series [1] is recorded as “not significantly decreased”. For the same compound, the Body weight result in series [2] is listed as “did not cause significant weight losses”. For the same compound, the “Hematopoiesis and overt toxicities” value in series [2] is recorded as “did not inhibit normal hematopoiesis or cause other overt toxicities”. Also, the “Blood cell counts versus control” value in [2] (blood test on day-14, 30 mg/kg/day) is listed as “no significant changes; also recorded: no significant differences”. Moreover, the Dmax was 88% at ENL [3] and around 95% at ENL [5] (MV4-11, MV4;11 cells, read-out: Dmax (maximal degradation) of ENL). The “Time at which significant ENL degradation can be detected” value on ENL [4] is given as 2 h. Also, the “Time to ENL depletion” value at ENL [4] is recorded as at most 24 h. Moreover, the “Expression of HoxA9, Meis1 and Myc” value in the series with HoxA9, Meis1 and Myc is “significantly inhibit expression”. Further, the EC50 was determined as 570 nM in the series on MV4;11 cells and 320 nM in the series with Molm-13 cells (Homo sapiens, MOLM-13, 168 h, read-out: EC50 against proliferation of Molm-13 cells). For the same compound, at ENL [5] (MV4;11 cells), the “Concentration of maximal ENL-degrading activity (hook effect above)” value is reported as ~ 500 nM. For the same compound, the DC50 at ENL [5] (MV4;11 cells, read-out: DC50 (concentration at which a protein is reduced by 50%) of ENL) was 37 nM. In addition, the “Overexpression of HoxA11 and HoxA13” value with HoxA11 and HoxA13 is listed as “significantly inhibited overexpression”. Besides, the “Time-dependent activity against cell proliferation” value in the series with Molm-13 cells (Molm-13 cells) is recorded as “did not inhibit cell proliferation during the first 4 days”.
